The values that follow come from patent US20260234112A1, “COMPOUNDS, COMPOSITIONS, AND METHODS OF USE THEREOF” (Type6 Therapeutics, Inc., priority 2023, published 2026).

In the assay the target is T1, Cdk2(2-298) (Homo sapiens, UniProt P24941).
T1 construct: Biotinylated N-terminal avi-tagged Cdk2(2-298) or Cdk1(1-297) was immobilized
Put plainly: Surface Plasmon Resonance (SPR) compound interaction, Biacore 8K. It counts as binding. The note with it: single-cycle kinetics (SCK, "S"), dissociation 1800 sec, read-out: Activity rating (KD). As to the method:
Compound interaction was profiled using a Biacore 8K instrument (Cytiva). Biotinylated N-terminal avi-tagged Cdk2(2-298) or Cdk1(1-297) was immobilized on a series S sensor Chip SA at a capture level between 2500 RU and 3000 RU (Cdk2) or 7000 RU (Cdk1) in buffer (25 mM HEPES, 150 mM NaCl, 0.05% Tween20, pH 7.5). A compound dilution plate (8 concentrations, 3-fold dilution) in DMSO was prepared (100× assay concentration). From this plate, compound DMSO stock solution was transferred into buffer, yielding a final DMSO concentration of 1% in assay. The remaining buffer was supplemented with 1% DMSO. Compounds were injected in a series of increasing concentrations in multi-cycle kinetics (MCK, “M”) or single-cycle kinetics (SCK, “S”) mode at a flow rate of 30 μl/min for 120 sec and dissociation was profiled for 180 sec (MCK) or 1800 sec (SCK). Data were analysed using Biacore Insight Evaluation Software (Cytiva).
The Kd is the concentration at which binding is half-saturated. As to `O=S(=O)(Nc1ccc(Oc2ccccc2-c2ccnc(N[C@H]3CCCNC3)n2)c(F)c1)c1ccccc1` [Compound 2, N-[3-Fluoro-4-[2-[2-[[(3S)-3-piperidyl]amino]pyrimidin-4-yl]phenoxy]phenyl] benzenesulfonamide], the Kd lay in the range of 1000 to 5000 nM.
To `N[C@H]1CC[C@H](Nc2nccc(-c3cnccc3Oc3ccc(NS(=O)(=O)c4ccc5c(c4)OCO5)cc3F)n2)CC1` [Compound 41, N-[4-[[3-[2-[(1r,4r)(4-aminocyclohexyl)amino]pyrimidin-4-yl]-4-pyridyl]oxy]-3-fluorophenyl]1,3-benzodioxol-5-ylsulfonamide] belongs 100 to 1000 nM.
To `O=S(=O)(Nc1ccc(Oc2ccncc2-c2ccnc(NC3COC3)n2)c(F)c1)c1ccccc1Cl` [Compound 88] belongs not above 10 nM.
To `CC(C)(C)c1ccccc1S(=O)(=O)Nc1ccc(Oc2ccncc2-c2ccnc(N[C@H]3CC[C@H](N)CC3)n2)c(F)c1` [Compound 66, N-[4-[[3-[2-[(1r,4r)(4-Aminocyclohexyl)amino]pyrimidin-4-yl]-4-pyridyl]oxy]-3-fluorophenyl] 2-tert-butylbenzenesulfonamide] belongs 100 to 1000 nM.
For the molecule `N[C@H]1CC[C@H](Nc2nccc(-c3cnccc3Oc3ccc(NS(=O)(=O)c4ccccc4-c4ccccc4)cc3F)n2)CC1` [Compound 72, N-[4-[[3-[2-(1r,4r)[(4-Aminocyclohexyl)amino]pyrimidin-4-yl]-4-pyridyl]oxy]-3-fluorophenyl] 2-phenylbenzenesulfonamide], the Kd is 11 to 100 nM.
As to `N#Cc1ccc(S(=O)(=O)Nc2ccc(Oc3ccncc3-c3ccnc(N[C@H]4CC[C@H](N)CC4)n3)c(F)c2)cc1` [Compound 30, N-(4-((3-(2-((1r,4r)-4-aminocyclohexyl)amino)pyrimidin-4-yl)pyridin-4-yloxy)-3-fluorophenyl) 4-cyanobenzenesulfonamide], the Kd was 100 to 1000 nM.
Take `N[C@H]1CC[C@H](Nc2nccc(-c3cnccc3Oc3ccc(NS(=O)(=O)c4cccc5ccccc45)cc3F)n2)CC1` [Compound 69, N-[4-[[3-[2-[(1r,4r)(4-Aminocyclohexyl)amino]pyrimidin-4-yl]-4-pyridyl]oxy]-3-fluorophenyl] naphthalene-1-sulfonamide]: the Kd lay within 11 to 100 nM.
To `CN1CC[C@H](Nc2nccc(-c3cnccc3Oc3ccc(NS(=O)(=O)c4ccccc4Cl)cc3F)n2)C1` [Compound 93] belongs 100 to 1000 nM; to `O=S(=O)(Nc1ccc(Oc2ccncc2-c2ccnc(N[C@H]3CCCNC3)n2)c(F)c1)c1ccccc1Cl` [Compound 34, N-[3-Fluoro-4-[[3-[2-[[(3S)-3-piperidyl]amino]pyrimidin-4-yl]-4-pyridyl]oxy]phenyl] 2-chlorobenzenesulfonamide], not above 10 nM.
As to `CN(C)[C@H]1CC[C@H](Nc2nccc(-c3cnccc3Oc3ccc(NC(=O)c4ccccc4Cl)cc3F)n2)CC1` [Compound 76, N-[4-[[3-[2-[(1r,4r)(4-(N,N-Dimethylamino)cyclohexyl)amino]pyrimidin-4-yl]-4-pyridyl]oxy]-3-fluorophenyl] 2-chlorobenzamide], the dissociation constant Kd fell in the range of 100 to 1000 nM.
To `N[C@H]1CC[C@H](Nc2nccc(-c3cnccc3Oc3cc(Cl)c(NS(=O)(=O)C4CC4)cc3F)n2)CC1` [Compound 60, N-[4-[[3-[2-[(1r,4r)(4-Aminocyclohexyl)amino]pyrimidin-4-yl]-4-pyridyl]oxy]-2-chloro-5-fluorophenyl] cyclopropylsulfonamide] belongs 1000 to 5000 nM.
In the case of `Cc1ccccc1S(=O)(=O)Nc1ccc(Oc2ccncc2-c2ccnc(N[C@H]3CC[C@H](N)CC3)n2)c(F)c1` [Compound 54, N-[4-[[3-[2-[(1r,4r)(4-Aminocyclohexyl)amino]pyrimidin-4-yl]-4-pyridyl]oxy]-3-fluorophenyl] 2-methylbenzenesulfonamide] it was 11 to 100 nM; in that of `Cc1ccc(-c2ccnc(N[C@H]3CC[C@H](N)CC3)n2)c(Oc2ccc(NS(=O)(=O)c3ccccc3Cl)cc2F)c1` [Compound 9, N-[4-[2-[2-[(1r,4r)(4-Aminocyclohexyl)amino]pyrimidin-4-yl]-5-methylphenoxy]-3-fluorophenyl] 2-chlorobenzenesulfonamide], 11 to 100 nM.
To `N[C@H]1CC[C@H](Nc2nccc(-c3cnccc3Sc3ccc(NS(=O)(=O)c4cccc5ccccc45)cc3F)n2)CC1` [Compound 118, N-[4-(1r,4r)[[3-[2-[(4-Aminocyclohexyl)amino]pyrimidin-4-yl]-4-pyridyl]sulfanyl]-3-fluorophenyl]naphthalene-1-sulfonamide] belongs 100 to 1000 nM.
Take `C=Cc1ccccc1S(=O)(=O)Nc1ccc(Oc2ccncc2-c2ccnc(N[C@H]3CC[C@H](N)CC3)n2)c(F)c1` [Compound 33, N-[4-[[3-[2-(1r,4r)[(4-Aminocyclohexyl)amino]pyrimidin-4-yl]-4-pyridyl]oxy]-3-fluoro-phenyl]-2-ethenylbenzenesulfonamide]: the equilibrium dissociation constant (Kd) is not above 10 nM.
Take `N[C@H]1CC[C@H](Nc2nccc(-c3cnccc3Oc3ccc(NS(=O)(=O)C4CCC4)cc3F)n2)CC1` [Compound 39, N-[4-[[3-[2-[(1r,4r)(4-Aminocyclohexyl)amino]pyrimidin-4-yl]-4-pyridyl]oxy]-3-fluorophenyl]cyclobutanesulfonamide]: the dissociation constant (Kd) lay within 1000 to 5000 nM.
To `Cc1cc2cc(S(=O)(=O)Nc3ccc(Oc4ccncc4-c4ccnc(N[C@H]5CC[C@H](N)CC5)n4)c(F)c3)ccc2[nH]1` [Compound 45, N-[4-[[3-[2-[(1r,4r)(4-aminocyclohexyl)amino]pyrimidin-4-yl]-4-pyridyl]oxy]-3-fluorophenyl] 2-methyl-1H-indole-5-sulfonamide] belongs more than 5000 nM; to `N[C@H]1CC[C@H](Nc2nccc(-c3cnccc3Oc3ccc(NS(=O)(=O)c4ccc(CCO)cc4F)cc3F)n2)CC1` [Compound 83, N-[4-[[3-[2-(1r,4r)[(4-Aminocyclohexyl)amino]pyrimidin-4-yl]-4-pyridyl]oxy]-3-fluorophenyl] 2-fluoro-4-(2-hydroxyethyl)benzenesulfonamide], 100 to 1000 nM.
To `Cc1ccc(Oc2ccc(NS(=O)(=O)c3ccccc3Cl)cc2F)c(-c2ccnc(N[C@H]3CC[C@H](N)CC3)n2)c1` [Compound 7, N-[4-[2-[2-[(1r,4r)(4-Aminocyclohexyl)amino]pyrimidin-4-yl]-4-methylphenoxy]-3-fluorophenyl] 2-chlorobenzenesulfonamide] belongs 11 to 100 nM.
In the case of `COc1ccc(Br)cc1S(=O)(=O)Nc1ccc(Oc2ccncc2-c2ccnc(N[C@H]3CC[C@H](N)CC3)n2)c(F)c1` [Compound 28, N-(4-((3-(2-((1r,4r)-4-aminocyclohexyl)amino)pyrimidin-4-yl)pyridin-4-yloxy)-3-fluorophenyl) 5-bromo-2-methoxybenzenesulfonamide] it was 100 to 1000 nM.
`N[C@H]1CC[C@H](Nc2nccc(-c3cc4ccccc4cc3Oc3ccc(NS(=O)(=O)c4ccccc4Cl)cc3F)n2)CC1` [Compound 23, N-[4-[2-[2-[(1r,4r)(4-Aminocyclohexyl)amino]pyrimidin-4-yl]naphthyl-3-oxy]-3-fluorophenyl] 2-chlorobenzenesulfonamide]: the Kd is not above 10 nM.
To `CN1CCC(Nc2nccc(-c3cnccc3Oc3ccc(NS(=O)(=O)c4ccccc4Cl)cc3F)n2)CC1` [Compound 77, N-[3-Fluoro-4-[[3-[2-[[N-methylpiperid-4-yl]amino]pyrimidin-4-yl]-4-pyridyl]oxy]phenyl] 2-chlorobenzenesulfonamide] belongs 11 to 100 nM; to `COCCOCCN1CC(Nc2nccc(-c3cnccc3Oc3ccc(NS(=O)(=O)c4ccccc4Cl)cc3F)n2)C1` [Compound 107], 100 to 1000 nM.
To `N[C@H]1CC[C@H](Nc2nccc(-c3cnccc3Oc3cc(Cl)c(NS(=O)(=O)c4ccccc4)cc3F)n2)CC1` [Compound 48, N-[4-[[3-[2-[(1r,4r)(4-Aminocyclohexyl)amino]pyrimidin-4-yl]-4-pyridyl]oxy]-2-chloro-5-fluorophenyl] benzenesulfonamide] belongs 11 to 100 nM; to `O=S(=O)(Nc1ccc(Oc2ccncc2-c2ccnc(NCCN3CCOCC3)n2)c(F)c1)c1ccccc1Cl` [Compound 86], 100 to 1000 nM.
In the case of `CS(=O)(=O)Nc1ccc(Oc2ccncc2-c2ccnc(N[C@H]3CC[C@H](N)CC3)n2)c(F)c1` [Compound 40, N-(4-((3-(2-(((1r,4r)-4-aminocyclohexyl)amino)pyrimidin-4-yl)pyridin-4-yl)oxy)-3-fluorophenyl) methanesulfonamide] it was 1000 to 5000 nM; in that of `O=S(=O)(Nc1ccc(Oc2ccncc2-c2ccnc(NCCOCCO)n2)c(F)c1)c1ccccc1Cl` [Compound 87], 100 to 1000 nM.
`N[C@H]1CC[C@H](Nc2nccc(-c3cnccc3Oc3ccc(NS(=O)(=O)c4cccs4)cc3F)n2)CC1` [Compound 29]: the dissociation constant Kd was in the range of 11 to 100 nM.
Turning to `O=S(=O)(Nc1ccc(Oc2ccncc2-c2ccnc(NCCc3ncc[nH]3)n2)c(F)c1)c1ccccc1Cl` [Compound 96], the equilibrium dissociation constant (Kd) lay within 100 to 1000 nM.
In the case of `O=S(=O)(Nc1ccc(Oc2ccccc2-c2ccnc(N[C@H]3CCCNC3)n2)c(F)c1)c1cccc2ccccc12` [Compound 6, N-[3-Fluoro-4-[2-[2-[[(3S)-3-piperidyl]amino]pyrimidin-4-yl]phenoxy]phenyl] naphthalene-1-sulfonamide] it was 100 to 1000 nM; in that of `N[C@H]1CC[C@H](Nc2nccc(-c3cncnc3Oc3ccc(NS(=O)(=O)c4ccccc4Cl)cc3F)n2)CC1` [Compound 128, N-[4-[5-[2-[(1r,4r)(4-aminocyclohexyl)amino]pyrimidin-4-yl]pyrimidin-4-yl]oxy-3-fluorophenyl] 2-chlorobenzenesulfonamide], not above 10 nM.
